From patent publication US20020081266A1, “Spray dried powders for pulmonary or nasal administration” (Norton Healthcare Ltd., priority 1999, published 2002)

How the values were obtained:
[1] = starting material
Description: Thermogravimetric Analysis (TGA)
Thermogravimetric analysis was carried out using a Mettler TG 50 linked to a Mettler MT5 balance. Data was processed using Mettler Toledo STAR software Version 5.1 with a Solaris operating system. Sample weights were between 5 and 10 mg and analysis was carried out under nitrogen purge. The scans were run from 30 to 350° C. at a heating rate of 10° C./minute. Two TGA scans were obtained for each system.

[2] = Scanning electron microscopy (SEM) particle diameter; type: physicochemical; conditions: for Particle diameters by SEM: spray dried from ethanolic solution
From the text: Scanning Electron Microscopy (SEM)
The scanning electron microscope used was the Hitachi S-3500N variable pressure scanning electron microscope. Samples were mounted and sputtered with gold spray for SEM.
The scanning electron microscope used was the Hitachi S-3500N variable pressure scanning electron microscope. Samples were mounted on aluminium stubs and spluttered with gold spray for SEM.

Row | Molecule | Temperature from which TGA mass loss due to degradation occurs [1] [°C] | Average particle diameter by SEM ([2]; starting material, not spray dried) | Particle diameters by SEM [2] [μm]
1 | COc1ccc(C[C@@H](C)NC[C@H](O)c2ccc(O)c(NC=O)c2)cc1.COc1ccc(C[C@@H](C)NC[C@H](O)c2ccc(O)c(NC=O)c2)cc1.O=C(O)/C=C/C(=O)O [Formoterol fumarate, formoterol fumarate] | ≥ 150 | 0.5-5 μm | 
2 | CC(C)[N+]1(C)[C@@H]2CC[C@H]1CC(OC(=O)C(CO)c1ccccc1)C2.[Br-] (stereo partly shown) [Ipratropium bromide, ipratropium bromide] |  |  | ≥ 60
3 | salbutamol sulphate |  |  | < 3
